# Reference: PubChem BioAssay AID196 (DTP/NCI, 2004)
# Several values for one entry are separate records, joined by “and”; a condition that tells them apart may be missing. Equal entries are not always repeated. Toxic doses and inconclusive results are not listed.
# Test system: BDF1 mice, intracerebral B16 melanoma, median survival T/C
# Assay: NCI In Vivo Anticancer Drug Screen. Data for tumor model B16 Melanoma (intracerebral) in B6D2F1 (BDF1) mice
# Settings: endpoint: median survival time, higher = longer survival
# Experimental: The antitumor activity of compounds was measured in mice bearing transplantable tumors. Survival or tumor size were measured and the results are expressed as the measurement made in the treated group (T) divided by the measurement made in the vehicle treated control group (C). The tumor model used in this assay is B16 Melanoma (intracerebral) in B6D2F1 (BDF1) mice
# [1] = dose: 32.0 mg/kg/injection, schedule: Q01DX005 (ip), vehicle: Klucel (hydroxypropylcellulose) (HPC)
# [2] = dose: 64.0 mg/kg/injection, schedule: Q01DX005 (ip), vehicle: Klucel (hydroxypropylcellulose) (HPC)
# [3] = dose: 32.0 mg/kg/injection, schedule: Q01DX005 (ip), vehicle: saline with Tween-80
# [4] = dose: 64.0 mg/kg/injection, schedule: Q01DX005 (ip), vehicle: saline with Tween-80
# [5] = dose: 256.0 mg/kg/injection, schedule: Q01DX005 (ip), vehicle: saline with Tween-80
# [6] = dose: 6.25 mg/kg/injection, schedule: Q01DX009 (ip), vehicle: other
# [7] = dose: 12.5 mg/kg/injection, schedule: Q01DX009 (ip), vehicle: other
# [8] = dose: 25.0 mg/kg/injection, schedule: Q01DX009 (ip), vehicle: other
# [9] = dose: 100.0 mg/kg/injection, schedule: Q01DX009 (ip), vehicle: other
# [10] = dose: 128.0 mg/kg/injection, schedule: Q01DX005 (ip), vehicle: saline
# [11] = dose: 256.0 mg/kg/injection, schedule: Q01DX005 (ip), vehicle: saline
# [12] = dose: 512.0 mg/kg/injection, schedule: Q01DX005 (ip), vehicle: saline
# [13] = dose: 50.0 mg/kg/injection, schedule: Q01DX009 (ip), vehicle: other
# [14] = dose: 1.0 mg/kg/injection, schedule: Q01DX009 (ip), vehicle: saline
# [15] = dose: 2.0 mg/kg/injection, schedule: Q01DX009 (ip), vehicle: saline
# [16] = dose: 4.0 mg/kg/injection, schedule: Q01DX009 (ip), vehicle: saline
compound,measurement,setting,value
COc1cc2c(c3c1c(=O)c1ccccc1n3C)C=CC(C)(C)O2,T/C,"dose: 16.0 mg/kg/injection, schedule: Q01DX005 (ip), vehicle: Klucel (hydroxypropylcellulose) (HPC)",121 % of control
same,T/C,[1],104 % of control
same,T/C,[2],115 % of control
C[C@]1(O)CC[C@H]2[C@@H]3CCC4=CC(=O)CC[C@]4(C)[C@@]3(F)[C@@H](O)C[C@@]21C,T/C,"dose: 8.0 mg/kg/injection, schedule: Q01DX009 (ip), vehicle: Klucel (hydroxypropylcellulose) (HPC)",115 % of control
same,T/C,"dose: 64.0 mg/kg/injection, schedule: Q01DX009 (ip), vehicle: Klucel (hydroxypropylcellulose) (HPC)",111 % of control
same,T/C,"dose: 128.0 mg/kg/injection, schedule: Q01DX009 (ip), vehicle: Klucel (hydroxypropylcellulose) (HPC)",111 % of control
same,T/C,"dose: 256.0 mg/kg/injection, schedule: Q01DX009 (ip), vehicle: Klucel (hydroxypropylcellulose) (HPC)",95 % of control
CCCCN(C)N=Nc1ccc([N+](=O)[O-])cc1C(N)=O,T/C,[3],121 % of control
same,T/C,[4],116 % of control
same,T/C,[5],154 % of control
same,T/C,"dose: 512.0 mg/kg/injection, schedule: Q01DX005 (ip), vehicle: saline with Tween-80",152 % of control
CN(C)N=Nc1ccc2c(c1)N(C)c1ccc(Cl)cc1S2,T/C,[6],97 % of control
same,T/C,[7],101 % of control
same,T/C,[8],102 % of control
same,T/C,[9],112 % of control
Nc1n[nH]c(N)n1,T/C,[10],95 % of control and 111 % of control
same,T/C,[11],97 % of control and 106 % of control
same,T/C,[12],116 % of control and 103 % of control
same,T/C,"dose: 1024.0 mg/kg/injection, schedule: Q01DX005 (ip), vehicle: saline",118 % of control and 93 % of control
Cc1ccc2c(c1)Sc1ccc(N=NN(C)C)cc1N2C,T/C,[6],101 % of control
same,T/C,[7],116 % of control
same,T/C,[8],98 % of control
same,T/C,[13],116 % of control
same,T/C,[9],112 % of control
CCN(CC)c1ccc2cc3ccc(=[N+](CC)CC)cc-3oc2c1,T/C,"dose: 4.0 mg/kg/injection, schedule: Q01DX005 (ip), vehicle: saline",100 % of control
same,T/C,"dose: 4.0 mg/kg/injection, schedule: Q01DX005 (ip), vehicle: suspension in saline",93 % of control
same,T/C,"dose: 8.0 mg/kg/injection, schedule: Q01DX005 (ip), vehicle: saline",98 % of control
same,T/C,"dose: 8.0 mg/kg/injection, schedule: Q01DX005 (ip), vehicle: suspension in saline",113 % of control
Nc1nc2c(c(=O)[nH]1)N(C=O)C(CNc1ccc(C(=O)N[C@@H](CCC(=O)O)C(=O)O)cc1)CN2 (some centres undefined),T/C,[10],102 % of control
same,T/C,[11],95 % of control
same,T/C,[12],87 % of control
O=P1(N(CCCl)CCCl)NCCCO1 (centres undefined),T/C,"dose: 12.5 mg/kg/injection, schedule: Q01DX009 (ip), vehicle: saline",116 % of control and 92 % of control
same,T/C,"dose: 12.5 mg/kg/injection, schedule: Q01DX009 (ip), vehicle: water",108 % of control
same,T/C,"dose: 25.0 mg/kg/injection, schedule: Q01DX009 (ip), vehicle: saline",100 % of control and 108 % of control
same,T/C,"dose: 25.0 mg/kg/injection, schedule: Q01DX009 (ip), vehicle: water",116 % of control
same,T/C,"dose: 50.0 mg/kg/injection, schedule: Q01DX009 (ip), vehicle: saline",120 % of control and 121 % of control
same,T/C,"dose: 100.0 mg/kg/injection, schedule: Q01DX009 (ip), vehicle: saline",95 % of control
same,T/C,"dose: 100.0 mg/kg/injection, schedule: Q01DX009 (ip), vehicle: water",104 % of control
c1ccc([C@H]2CN3CCSC3=N2)cc1,T/C,"dose: 5.0 mg/kg/injection, schedule: Q01DX009 (ip), vehicle: saline",98 % of control and 105 % of control
same,T/C,"dose: 10.0 mg/kg/injection, schedule: Q01DX005 (ip), vehicle: saline",120 % of control and 93 % of control
same,T/C,"dose: 10.0 mg/kg/injection, schedule: Q01DX009 (ip), vehicle: saline",89 % of control and 94 % of control and 98 % of control
same,T/C,"dose: 20.0 mg/kg/injection, schedule: Q01DX005 (ip), vehicle: saline",96 % of control and 112 % of control
same,T/C,"dose: 20.0 mg/kg/injection, schedule: Q01DX009 (ip), vehicle: saline",87 % of control and 89 % of control and 98 % of control
same,T/C,"dose: 40.0 mg/kg/injection, schedule: Q01DX005 (ip), vehicle: saline",93 % of control and 108 % of control
same,T/C,"dose: 40.0 mg/kg/injection, schedule: Q01DX009 (ip), vehicle: saline",103 % of control
CC(C)=CCC1=C(O)c2ccccc2C(=O)C1=O,T/C,[1],98 % of control
same,T/C,[2],90 % of control and 96 % of control
same,T/C,"dose: 128.0 mg/kg/injection, schedule: Q01DX005 (ip), vehicle: Klucel (hydroxypropylcellulose) (HPC)",87 % of control and 105 % of control
same,T/C,"dose: 256.0 mg/kg/injection, schedule: Q01DX005 (ip), vehicle: Klucel (hydroxypropylcellulose) (HPC)",90 % of control and 96 % of control
CN(C)N=Nc1cccc2c1N(C)c1ccc(Cl)cc1S2,T/C,[6],103 % of control
same,T/C,[7],100 % of control
same,T/C,[8],108 % of control
same,T/C,[13],101 % of control
same,T/C,[9],101 % of control
O=C1NC2(CCCCC2)C(=O)N1CCN(CCCl)CCCl,T/C,"dose: 1.5 mg/kg/injection, schedule: Q01DX009 (ip), vehicle: saline with Tween-80",97 % of control
same,T/C,"dose: 3.0 mg/kg/injection, schedule: Q01DX009 (ip), vehicle: saline with Tween-80",103 % of control
same,T/C,"dose: 6.0 mg/kg/injection, schedule: Q01DX009 (ip), vehicle: saline with Tween-80",106 % of control
same,T/C,"dose: 12.0 mg/kg/injection, schedule: Q01DX009 (ip), vehicle: saline with Tween-80",103 % of control
O=CC(NC(=O)N(CCCl)N=O)C(O)C(O)C(O)CO (centres undefined),T/C,[14],97 % of control
same,T/C,[15],99 % of control
same,T/C,[16],111 % of control
same,T/C,"dose: 7.5 mg/kg/injection, schedule: Q01DX001 (ip), vehicle: saline with Tween-80",92 % of control
same,T/C,"dose: 8.0 mg/kg/injection, schedule: Q01DX009 (ip), vehicle: saline",117 % of control
same,T/C,"dose: 15.0 mg/kg/injection, schedule: Q01DX001 (ip), vehicle: saline with Tween-80",119 % of control
same,T/C,"dose: 17.8 mg/kg/injection, schedule: Q01DX001 (ip), vehicle: Klucel (hydroxypropylcellulose) (HPC)",120 % of control
same,T/C,"dose: 26.7 mg/kg/injection, schedule: Q01DX001 (ip), vehicle: Klucel (hydroxypropylcellulose) (HPC)",118 % of control
same,T/C,"dose: 30.0 mg/kg/injection, schedule: Q01DX001 (ip), vehicle: saline with Tween-80",103 % of control
N[C@@H](Cc1ccc(N(CCCl)CCCl)cc1)C(=O)O,T/C,"dose: 0.5 mg/kg/injection, schedule: Q01DX009 (ip), vehicle: saline",95 % of control
same,T/C,"dose: 0.5 mg/kg/injection, schedule: Q01DX009 (ip), vehicle: water",100 % of control
same,T/C,[14],100 % of control
same,T/C,"dose: 1.0 mg/kg/injection, schedule: Q01DX009 (ip), vehicle: water",104 % of control
same,T/C,[15],120 % of control
same,T/C,"dose: 2.0 mg/kg/injection, schedule: Q01DX009 (ip), vehicle: water",116 % of control
same,T/C,[16],87 % of control
C#CCN(C)/N=N/c1nc[nH]c1C(N)=O,T/C,"dose: 16.0 mg/kg/injection, schedule: Q01DX005 (ip), vehicle: saline with Tween-80",107 % of control
same,T/C,[3],104 % of control
same,T/C,[4],110 % of control
same,T/C,"dose: 128.0 mg/kg/injection, schedule: Q01DX005 (ip), vehicle: saline with Tween-80",109 % of control
same,T/C,[5],100 % of control
COc1ccc2c(c1OC(C)=O)-c1cc(O)cc3c1C(C2)N(C(=O)CN(CCCl)CCCl)CC3 (centres undefined),T/C,"dose: 3.12 mg/kg/injection, schedule: Q01DX009 (ip), vehicle: saline with Tween-80",96 % of control
same,T/C,"dose: 6.25 mg/kg/injection, schedule: Q01DX009 (ip), vehicle: saline with Tween-80",100 % of control
same,T/C,"dose: 8.0 mg/kg/injection, schedule: Q01DX005 (ip), vehicle: DMSO",104 % of control
same,T/C,"dose: 12.5 mg/kg/injection, schedule: Q01DX009 (ip), vehicle: saline with Tween-80",93 % of control
same,T/C,"dose: 16.0 mg/kg/injection, schedule: Q01DX005 (ip), vehicle: DMSO",106 % of control
